# According to PubChem BioAssay AID1745844 (Carcinogenic Potency Database (CPDB), 2022):
# Active and inactive are the calls of the source. How the calls were made is not given here.
# Test system: rodent lifetime carcinogenesis bioassay, tumor incidence TD50
# Test: carcinogenic potency in animals, long-term in vivo studies, CPDB compilation (AID 1745844)
compound,measurement,setting,value
Oc1ccccc1O,TD50,"mouse, strain B6C3F1, females, in feed, site: forestomach, lesion: papilloma, dosed 96 weeks, study length 96 weeks",17300 mg/kg/day
same,TD50,"mouse, strain B6C3F1, females, in feed, site: liver, lesion: hyperplastic nodule, dosed 96 weeks, study length 96 weeks",17300 mg/kg/day
same,TD50,"mouse, strain B6C3F1, females, in feed, site: stomach, glandular, lesion: adenoma, dosed 96 weeks, study length 96 weeks",471 mg/kg/day
same,TD50,"mouse, strain B6C3F1, males, in feed, site: all sites, lesion: lymphoma and leukemia, combined, dosed 96 weeks, study length 96 weeks",2460 mg/kg/day
same,TD50,"mouse, strain B6C3F1, males, in feed, site: forestomach, lesion: papilloma, dosed 96 weeks, study length 96 weeks",16500 mg/kg/day
same,TD50,"mouse, strain B6C3F1, males, in feed, site: lung, lesion: adenoma, dosed 96 weeks, study length 96 weeks",16500 mg/kg/day
same,TD50,"mouse, strain B6C3F1, males, in feed, site: stomach, glandular, lesion: adenoma, dosed 96 weeks, study length 96 weeks",165 mg/kg/day
same,TD50,"rat, strain Crj:Wistar, males, in feed, site: forestomach, lesion: squamous-cell carcinoma, dosed 104 weeks, study length 104 weeks",6470 mg/kg/day
same,TD50,"rat, strain Crj:Wistar, males, in feed, site: forestomach, lesion: squamous-cell papilloma, dosed 104 weeks, study length 104 weeks",3180 mg/kg/day
same,TD50,"rat, strain Crj:Wistar, males, in feed, site: liver, lesion: hepatocellular carcinoma, dosed 104 weeks, study length 104 weeks",6470 mg/kg/day
same,TD50,"rat, strain Crj:Wistar, males, in feed, site: liver, lesion: hyperplastic nodule, dosed 104 weeks, study length 104 weeks",3180 mg/kg/day
same,TD50,"rat, strain Crj:Wistar, males, in feed, site: stomach, glandular, lesion: adenocarcinoma, dosed 104 weeks, study length 104 weeks",200 mg/kg/day
same,TD50,"rat, strain Crj:Wistar, males, in feed, site: stomach, glandular, lesion: adenoma, dosed 104 weeks, study length 104 weeks",64.5 mg/kg/day
same,TD50,"rat, strain Crj:Wistar, males, in feed, site: stomach, glandular, lesion: sarcoma, dosed 104 weeks, study length 104 weeks",2080 mg/kg/day
same,TD50,"rat, strain F344/DuCrj, females, in feed, site: stomach, glandular, lesion: adenocarcinoma, dosed 104 weeks, study length 104 weeks",490 mg/kg/day
same,TD50,"rat, strain F344/DuCrj, males, in feed, site: forestomach, lesion: carcinoma, in situ, dosed 51 weeks, study length 52 weeks",833 mg/kg/day
same,TD50,"rat, strain F344/DuCrj, males, in feed, site: forestomach, lesion: papilloma, dosed 51 weeks, study length 52 weeks",833 mg/kg/day
same,TD50,"rat, strain F344/DuCrj, males, in feed, site: forestomach, lesion: papilloma, dosed 104 weeks, study length 104 weeks",2960 mg/kg/day
same,TD50,"rat, strain F344/DuCrj, males, in feed, site: forestomach, lesion: squamous-cell papilloma, dosed 51 weeks, study length 52 weeks",833 mg/kg/day
same,TD50,"rat, strain F344/DuCrj, males, in feed, site: forestomach, lesion: squamous-cell papilloma, dosed 104 weeks, study length 104 weeks",3300 mg/kg/day
same,TD50,"rat, strain F344/DuCrj, males, in feed, site: pancreas, lesion: acinar-cell adenoma, dosed 104 weeks, study length 104 weeks",1180 mg/kg/day
same,TD50,"rat, strain F344/DuCrj, males, in feed, site: stomach, glandular, pyloric region, lesion: adenocarcinoma, dosed 104 weeks, study length 104 weeks",3320 mg/kg/day
same,TD50,"rat, strain F344/DuCrj, males, in feed, site: stomach, glandular, pyloric region, lesion: adenoma, dosed 104 weeks, study length 104 weeks",43.5 mg/kg/day
same,TD50,"rat, strain F344/DuCrj, males, in feed, site: stomach, glandular, pyloric region, lesion: sarcoma, dosed 104 weeks, study length 104 weeks",1940 mg/kg/day
same,TD50,"rat, strain F344/DuCrj, males, in feed, site: stomach, glandular, lesion: adenocarcinoma, dosed 48 weeks, study length 96 weeks",387 mg/kg/day
same,TD50,"rat, strain F344/DuCrj, males, in feed, site: stomach, glandular, lesion: adenocarcinoma, dosed 51 weeks, study length 51 weeks",130 mg/kg/day
same,TD50,"rat, strain F344/DuCrj, males, in feed, site: stomach, glandular, lesion: adenocarcinoma, dosed 72 weeks, study length 72 weeks",206 mg/kg/day
same,TD50,"rat, strain F344/DuCrj, males, in feed, site: stomach, glandular, lesion: adenocarcinoma, dosed 72 weeks, study length 96 weeks",202 mg/kg/day
same,TD50,"rat, strain F344/DuCrj, males, in feed, site: stomach, glandular, lesion: adenocarcinoma, dosed 96 weeks, study length 96 weeks",141 mg/kg/day
same,TD50,"rat, strain F344/DuCrj, males, in feed, site: stomach, glandular, lesion: adenocarcinoma, dosed 104 weeks, study length 104 weeks",286 mg/kg/day
same,carcinogen call,"rat, strain F344/DuCrj, males, in feed, site: stomach, glandular, lesion: adenoma, dosed 48 weeks, study length 96 weeks",positive
same,carcinogen call,"rat, strain F344/DuCrj, males, in feed, site: stomach, glandular, lesion: adenoma, dosed 51 weeks, study length 51 weeks",positive
same,carcinogen call,"rat, strain F344/DuCrj, males, in feed, site: stomach, glandular, lesion: adenoma, dosed 51 weeks, study length 52 weeks",positive
same,carcinogen call,"rat, strain F344/DuCrj, males, in feed, site: stomach, glandular, lesion: adenoma, dosed 72 weeks, study length 72 weeks",positive
same,carcinogen call,"rat, strain F344/DuCrj, males, in feed, site: stomach, glandular, lesion: adenoma, dosed 72 weeks, study length 96 weeks",positive
same,carcinogen call,"rat, strain F344/DuCrj, males, in feed, site: stomach, glandular, lesion: adenoma, dosed 96 weeks, study length 96 weeks",positive
same,carcinogen call,"rat, strain F344/DuCrj, males, in feed, site: stomach, glandular, lesion: several types, types named in the paper, dosed 51 weeks, study length 52 weeks",positive
same,TD50,"rat, strain Fischer 344, males, in drinking water, site: prostate, lesion: carcinoma, in situ, dosed 78 weeks, study length 78 weeks",236 mg/kg/day (inactive)
same,carcinogen call,"rat, strain Fischer 344, males, in drinking water, site: urinary bladder, lesion: one or several types, types not named, dosed 78 weeks, study length 78 weeks",negative (inactive)
same,TD50,"rat, strain LEW/Crj (Lewis), males, in feed, site: stomach, glandular, lesion: adenocarcinoma, dosed 104 weeks, study length 104 weeks",166 mg/kg/day
same,TD50,"rat, strain LEW/Crj (Lewis), males, in feed, site: stomach, glandular, lesion: adenoma, dosed 104 weeks, study length 104 weeks",64.5 mg/kg/day
same,TD50,"rat, strain LEW/Crj (Lewis), males, in feed, site: stomach, glandular, lesion: sarcoma, dosed 104 weeks, study length 104 weeks",2080 mg/kg/day
same,TD50,"rat, strain SD(Crj:CD) Sprague-Dawley, males, in feed, site: forestomach, lesion: squamous-cell carcinoma, dosed 104 weeks, study length 104 weeks",6470 mg/kg/day
same,TD50,"rat, strain SD(Crj:CD) Sprague-Dawley, males, in feed, site: forestomach, lesion: squamous-cell papilloma, dosed 104 weeks, study length 104 weeks",983 mg/kg/day
same,TD50,"rat, strain SD(Crj:CD) Sprague-Dawley, males, in feed, site: stomach, glandular, lesion: adenocarcinoma, dosed 104 weeks, study length 104 weeks",151 mg/kg/day
same,carcinogen call,"rat, strain SD(Crj:CD) Sprague-Dawley, males, in feed, site: stomach, glandular, lesion: adenoma, dosed 104 weeks, study length 104 weeks",positive
same,TD50,"rat, strain WKY/NCrj (Wistar), males, in feed, site: forestomach, lesion: squamous-cell papilloma, dosed 104 weeks, study length 104 weeks",6470 mg/kg/day
same,TD50,"rat, strain WKY/NCrj (Wistar), males, in feed, site: liver, lesion: several types, types named in the paper, dosed 104 weeks, study length 104 weeks",12400 mg/kg/day
same,TD50,"rat, strain WKY/NCrj (Wistar), males, in feed, site: stomach, glandular, lesion: adenocarcinoma, dosed 104 weeks, study length 104 weeks",2080 mg/kg/day
same,carcinogen call,"rat, strain WKY/NCrj (Wistar), males, in feed, site: stomach, glandular, lesion: adenoma, dosed 104 weeks, study length 104 weeks",positive
CCNC(=O)Nc1ncc([N+](=O)[O-])s1,TD50,"mouse, strain B6C3F1, females, in feed, site: any site (literature study), lesion: several types, types named in the paper, dosed 94 weeks, study length 104 weeks",1400 mg/kg/day (inactive)
same,TD50,"mouse, strain B6C3F1, females, in feed, site: liver, lesion: hepatocellular adenoma + hepatocellular carcinoma + neoplastic nodule, dosed 94 weeks, study length 104 weeks",2720 mg/kg/day
same,TD50,"mouse, strain B6C3F1, males, in feed, site: any site (literature study), lesion: several types, types named in the paper, dosed 94 weeks, study length 104 weeks",4750 mg/kg/day
same,TD50,"mouse, strain B6C3F1, males, in feed, site: liver, lesion: hepatocellular adenoma + hepatocellular carcinoma + neoplastic nodule, dosed 94 weeks, study length 104 weeks",758 mg/kg/day
same,TD50,"mouse, strain B6C3F1, males, in feed, site: liver, lesion: hepatocellular adenoma + hepatocellular carcinoma, dosed 94 weeks, study length 104 weeks",758 mg/kg/day
same,TD50,"mouse, strain B6C3F1, males, in feed, site: liver, lesion: hepatocellular carcinoma, dosed 94 weeks, study length 104 weeks",1900 mg/kg/day
same,TD50,"rat, strain Fischer 344, females, in feed, site: any site (literature study), lesion: several types, types named in the paper, dosed 94 weeks, study length 104 weeks",175 mg/kg/day
same,TD50,"rat, strain Fischer 344, females, in feed, site: mammary gland + skin + subcutaneous tissue, lesion: cystadenoma, NOS + fibroadenoma, dosed 94 weeks, study length 104 weeks",131 mg/kg/day
same,carcinogen call,"rat, strain Fischer 344, males, in feed, site: any site (literature study), lesion: several types, types named in the paper, dosed 94 weeks, study length 104 weeks",negative (inactive)
same,TD50,"rat, strain Fischer 344, males, in feed, site: liver, lesion: hepatocellular adenoma + hepatocellular carcinoma + neoplastic nodule, dosed 94 weeks, study length 104 weeks",508 mg/kg/day
C1CNCCN1,TD50,"rat, strain MRC, females, in drinking water, site: any site (literature study), lesion: several types, types named in the paper, dosed 75 weeks, study length 104 weeks",11.2 mg/kg/day
[N-]=[N+]=[N-],TD50,"rat, strain Charles River CD (Sprague-Dawley), females, in feed, site: mammary gland, lesion: one or several types, types not named, dosed 78 weeks, study length 104 weeks",3.01 mg/kg/day
same,TD50,"rat, strain Charles River CD (Sprague-Dawley), females, in feed, site: pituitary gland, lesion: chromophobe adenoma, dosed 78 weeks, study length 104 weeks",16.1 mg/kg/day (inactive)
same,carcinogen call,"rat, strain Charles River CD (Sprague-Dawley), males, in feed, site: pituitary gland, lesion: chromophobe adenoma, dosed 78 weeks, study length 104 weeks",negative (inactive)
same,TD50,"rat, strain Fischer 344, females, by gavage, site: any site (literature study), lesion: several types, types named in the paper, dosed 103 weeks, study length 104 weeks",19.1 mg/kg/day (inactive)
same,TD50,"rat, strain Fischer 344, males, by gavage, site: any site (literature study), lesion: several types, types named in the paper, dosed 103 weeks, study length 104 weeks",8.26 mg/kg/day
same,TD50,"rat, strain Fischer 344, males, by gavage, site: testis, lesion: interstitial-cell adenoma, bilateral + interstitial-cell adenoma, dosed 103 weeks, study length 104 weeks",3.79 mg/kg/day (inactive)
O=P(=O)O,TD50,"rat, strain F344/DuCrj, females, in feed, site: any site (literature study), lesion: several types, types named in the paper, dosed 108 weeks, study length 108 weeks",5100 mg/kg/day (inactive)
same,carcinogen call,"rat, strain F344/DuCrj, females, in feed, site: liver, lesion: one or several types, types not named, dosed 108 weeks, study length 108 weeks",negative (inactive)
same,carcinogen call,"rat, strain F344/DuCrj, males, in feed, site: any site (literature study), lesion: several types, types named in the paper, dosed 108 weeks, study length 108 weeks",negative (inactive)
same,carcinogen call,"rat, strain F344/DuCrj, males, in feed, site: liver, lesion: one or several types, types not named, dosed 108 weeks, study length 108 weeks",negative (inactive)
